US11261210B2, “Glycosylated antitumor ether lipids as novel cancer stem cell cytotoxic agents” (UNIVERSITY OF MANITOBA, priority 2012, dated 2022)

What was measured:
[1] = system: BT-474 stem cell tumorspheres; assay: Viability of BT-474 stem cell tumorspheres (MTS assay); type: cell-based, human; conditions: for Viability (% 0f control) / toxicity against the cancer stem cells / loss of viability: 6 days; for Viability (% 0f control): Table 2; for toxicity against the cancer stem cells: BT-474 spheroids
Experimental: FIG. 6. Effect of β-O-Gln, α-O-Gln, β-C-Gln and ET-18-OCH3 on the viability of BT-474 stem cell tumorspheres. BT-474 cancer stem cells were grown for 7 days in ultra low adhesion 6 well plates. The tumorspheres formed were harvested, trypsinised and cell numbers were determined. Equal numbers of cells were dispersed into 48-well plates in mammocult medium and incubation was under static conditions. Wells with only medium but no cells were treated in an identical manner to serve as blanks. After spheres were formed, β-O-Gln, α-O-Gln, β-C-Gln or ET-18-OCH3 (0, 10, 20, 30 μM) were added and incubation was for a total of 6 days. At the end of the incubation, the MTS reagent was added to each well and the plates were rotated on a Nutator mixer in a 5% CO2 incubator for 4 h. The absorbance of each well was read at 470 nm. The results are the means±standard deviation of 4 independent determinations.
(§1) Cell viability assay: Cell viability was determined by the Cell Titre 96 Aqueous One solution proliferation assay ((MTS assay; Promega) according to the instructions of the manufacturer.
The viability of the material at the end of the incubation was determined using the MTS assay. […] In cells incubated with 10 μM of β-C-Gln, 90% of the cells were not viable. […] In contrast, in experiments with ET-18-OCH3, 10 or 20 μM ET-18-OCH3 had little effect on the viability of BT-474 spheroids and at a concentration of 30 μM viability was around 45% relative to controls. The results of the integrity studies correlate well with the viability studies.
We also investigated the effect of α-O-Galn, β-O-Galn or α-O-Mann on the viability of BT-474 spheroids. The spheroids were incubated with the compounds for 6 days and the viability was assessed by the MTS assay. […] Viability was down to around 10% at 10 μM concentration of the compound. […] At a concentration of 30 μM a significant proportion (26-32%) of the BT-474 cancer stem cells were still viable. The cytotoxic efficacy of GAELs is dependent on the type of sugar moiety and the anomeric form in some instances.

[2] = system: JIMT1 stem cell tumorspheres; assay: Viability of JIMT1 stem cell tumorspheres (MTS assay); type: cell-based, human; conditions: 6 days
Experimental: FIG. 8. Effect of β-O-Gln, α-O-Gln, β-C-Gln and ET-18-OCH3 on the viability of JIMT1 stem cell tumorspheres. BT-474 cancer stem cells were grown for 7 days in ultra low adhesion 6-well plates. The tumorspheres formed were harvested, trypsinised and cell numbers were determined. Equal numbers of cells were dispersed into 48-well non-treated plates in mammocult medium and incubation was under static conditions. Wells with only medium but no cells were treated in an identical manner to serve as blanks. After spheres were formed, O-Gln, C-Gln or ET-18-OCH3 (0, 10, 20, 30 μM) were added and incubation was for a total of 6 days. At the end of the incubation, the MTS reagent was added to each well and the plates were mixed in a nutator in a 5% CO2 incubator for 4 h. The absorbance of each well was read at 470 nm. The results are the means±standard deviation of 4 independent determinations.
as §1
The viability of cells in spheroids incubated with 20 or 30 μM ET-18-OCH3 was between 30-40% of controls.

[3] = system: BT-474 cancer stem cells; assay: BT-474 cancer stem cell spheroid formation; type: cell-based, human; conditions: BT474 cancer stem cells, FIG. 1B
Experimental: FIG. 1. A. Effect of β-C-Gln (β-AC1) on BT-474 cancer stem cell spheroid formation. BT-474 cancer stem cells were obtained by staining BT474 cells for ALDH1 and sorting the stained from unstained cells by flow cytometry. The ALDH1 stained cells were grown in ultra-low adhesion 6-well plates in mammocult medium for 7 days. The spheroids were isolated and trypsinised to generate single cells. The cells were then seeded for 2 days in ultra-low adhesion 6-well plates, and subsequently incubated in the absence or presence of C-Gln for up to 12 days. The media was replenished after 6 days. B. Effect of β-O-Gln (β-AO1), α-O-Gln (α-AO1), or ET-18-OCH3 on BT-474 cancer stem cell spheroid formation.
Breast cancer stem cell enriched cell population was obtained by staining breast cancer cell lines BT-474 and JIMT-1 for aldehyde dehydrogenase 1 (ALDH1) using the assay kit from Stem Cell Technologies (Vancouver BC, Canada) according to the instructions of the manufacturer with the appropriate controls. […] The cell numbers were determined with a Coulter ZM counter and the cells were seeded into the appropriate low adhesion tissue culture ware for various studies. […]

[4] = system: JIMT-1 stem cell spheroids; assay: Morphology of JIMT-1 stem cell spheroids; type: cell-based, human; conditions: 6 days, FIG. 7B
Experimental: FIG. 7. A. Effect of β-O-Gln, β-C-Gln or ET-18-OCH3 on morphology of JIMT-1 stem cell spheroids. B. Effect of β-O-Gln, α-O-Gln or ET-18-OCH3 on morphology of JIMT-1 stem cell spheroids. JIMT-1 cancer stem cells were grown for 7 days in ultra low adhesion 6 well plates. The tumorspheres formed were harvested, trypsinised and cell numbers were determined. Equal numbers of cells were dispersed into 48-well non-treated plates in mammocult medium and incubated in a CO2 incubator under static conditions. After spheres were formed, O-Gln, C-Gln or ET-18-OCH3 were added (0, 10, 20 and 30 μM) and incubation was for a total of 6 days with media supplementation after 3 days. Images for FIG. 7A were taken at day 0 and after 72 h following addition of the compounds. Images for FIG. 7B were taken after 6 days incubation with the compounds.
The above studies were repeated with JIMT-1 spheroids.

[5] = system: BT474 cancer stem cells; assay: Trypan blue dye exclusion viability of BT474 cancer stem cells; type: cell-based, human; conditions: BT474 cancer stem cells incubated with compound
Experimental: Trypan blue dye exclusion assay using the TC10 automated cell counter (BioRad) was also used for some studies.
We investigated the effects of the GAELs and the ALPET-18-OCH3 on the ability of the cancer stem cells to form tumorspheres. […] This was a concentration dependent event and at concentrations greater than 10 μM spheroid formation was completely disrupted.

[6] = system: cancer cell lines; conditions: Xu et al., ChemMedChem in press; cited from earlier work
[7] = system: cancer stem cells; assay: Tumorsphere formation by freshly sorted cancer stem cells; type: cell-based, human; conditions: added to freshly sorted cancer stem cells, 10 μM and above, 6 days
Description: Breast cancer stem cell enriched cell population was obtained by staining breast cancer cell lines BT-474 and JIMT-1 for aldehyde dehydrogenase 1 (ALDH1) using the assay kit from Stem Cell Technologies (Vancouver BC, Canada) according to the instructions of the manufacturer with the appropriate controls. BT-474 is a ductal carcinoma cell line (Lasfargues E Y, Coutinho W G, Dion A S (1979) A human breast tumor cell line (BT-474) that supports mouse mammary tumor virus replication. In Vitro 15, 723-729) while JIMT-1 is a carcinoma cell line that is resistant to herceptin (Tanner M, Kapanen A J, Junttila T, Raheem O, Grenman S, Elo J, Elenius K, Isola J (2004). Characterization of a novel cell line established from a patient with herceptin-resistant breast cancer. Mol Cancer Ther 3, 1585-1592). Following the staining, the cells stained for ALDH1 were sorted from the bulk population by flow cytometry on a 4 laser MoFloXPP high speed/pressure cell sorter. The cells were pelleted by centrifugation, resuspended in supplemented Mammocult medium (Stem Cell Technologies) and dispersed into ultra-low adhesive 6-well plates or 35 mm dishes for 7 days to allow the formation of spheroids (mammospheres). After 7 days, the spheres were separated from single cells (dead non-stem cells) by sieving the contents of the well through a […] nylon cell strainer (BD Falcon). The spheres retained in the sieve are washed with Hanks buffer and subsequently trypsinised to obtain a single cell suspension of cancer stem cells. The cell numbers were determined with a Coulter ZM counter and the cells were seeded into the appropriate low adhesion tissue culture ware for various studies.
AEL solutions in ethanol were diluted into supplemented mammocult medium generally at twice the desired final concentration. A volume equal to that in the wells was added to dilute the drug to the desired concentration in each well. Subsequently any further addition of drug to the wells, utilized AEL solution prepared at the desired concentration. […]

[8] = Generation of large acidic vacuoles; type: cell-based
Description: Autophagy 5, 835-84663). Furthermore an active endocytosis pathway was essential for GAEL activity (Samadder P, Byun H-S, Bittman R, Arthur G (2011) The endocytosis pathway is required for the cytotoxic effects of glycosylated antitumor ether lipids, Anticancer Res 31, 3809-3818). The generation of the large acidic vacuoles is a hallmark of this non-apoptosis death pathway induced by GAELs.

With CCCCCCCCCCCCCCCCOC[C@H](COC1O[C@H](CO)[C@H](O)[C@H](O)[C@H]1N)OC (stereo partly drawn) [β-O-Galn, 1-O-Hexadecyl-2-O-methyl-3-O-(2′-amino-2′-deoxy-D-galactopyranosyl)-sn-glycerol] the “Viability (% 0f control)” value ([1]; 10 μM, listed as β-Galn) was 153.7 % 0f control, the “Viability (% 0f control)” value ([1]; 20 μM, listed as β-Galn) was 48.0 % 0f control and the “Viability (% 0f control)” value ([1]; 30 μM, listed as β-Galn) was 32.16 % 0f control. For the same molecule, the “toxicity against the cancer stem cells” value [1] was “not as active as α-O-Galn”.

With CCCCCCCCCCCCCCCCOC[C@H](COC1O[C@H](CO)[C@@H](O)[C@H](O)[C@H]1N)OC (stereo partly drawn) [α-O-Gln, 1-O-Hexadecyl-2-O-methyl-3-O-(2′-amino-2′-deoxy-D-glucopyranosyl)-sn-glycerol] the loss of viability ([2]; 10 μM) was 90%, the loss of viability ([2]; 20 or 30 μM) was “Complete loss of viability” and the spheroid formation [3] was “unable to form spheroids”. The spheroid integrity [4] was “complete disintegration of the spheroids”, the “viability (trypan dye exclusion)” value [5] was “not viable” and the loss of viability ([1]; 10 μM) was “about 60%”. The loss of viability ([1]; 20 or 30 μM) was “total loss of viability”, the “cytotoxicity compared to β-O-Gln (β-AO1)” value [6] was “superior activity” and the spheroid formation [7] was “unable to form spheroids”. For the same molecule, the “generation of large acidic vacuoles” value [8] was “generation of these vacuoles”.

For CCCCCCCCCCCCCCCCOC[C@H](CS[C@@H]1O[C@H](CO)[C@@H](O)[C@H](O)[C@H]1N)OC [β-AS1, 1-O-Hexadecyl-2-O-methyl-3-S-(2′-amino-2′-deoxy-β-D-glucopyranosyl)-sn-glycerol], the “cytotoxicity compared to β-O-Gln (β-AO1)” value [6] is given as “not as active as β-O-Gln”.

In the case of CCCCCCCCCCCCCCCCOC[C@H](CS[C@H]1O[C@H](CO)[C@@H](O)[C@H](O)[C@H]1N)OC [α-AS2, 1-O-Hexadecyl-2-O-methyl-3-S-(2′-amino-2′-deoxy-α-D-glucopyranosyl)-sn-glycerol], the “cytotoxicity compared to β-O-Gln (β-AO1)” value [6] is listed as “not as active as β-O-Gln”.

For CCCCCCCCCCCCCCCCCCOCC(COP(=O)([O-])OCC[N+](C)(C)C)OC (stereo not shown) [ET-18-OCH3, 1-O-octadecyl-2-O-methyl-glycerophosphocholine, reference compound], the “viability, % of controls” value ([2]; 20 or 30 μM) was 30-40 % of controls, the cytotoxicity at 10 µM ([2]; Homo sapiens, JIMT-1, 144 h, 10 μM, read-out: loss of viability) was 40% and the viability at 30 µM ([1]; Homo sapiens, BT-474, 144 h, read-out: viability relative to controls) was ~45%.

In the case of CCCCCCCCCCCCCCCCOCC(CO[C@H]1O[C@H](CO)[C@@H](O)[C@H](O)[C@@H]1N)OC (stereo partly drawn) [α-O-Mann], the “Viability (% 0f control)” value ([1]; 10 μM) is reported as 134.3 % 0f control, the “Viability (% 0f control)” value ([1]; 20 μM) is reported as 58.84 % 0f control and the “Viability (% 0f control)” value ([1]; 30 μM, listed as α-Mann) is reported as 25.9 % 0f control. The “toxicity against the cancer stem cells” value [1] was “not as active as α-O-Galn”.

With CCCCCCCCCCCCCCCCOC[C@H](COC1O[C@H](CO)[C@H](O)[C@H](O)[C@H]1N)OC (stereo partly drawn) [α-O-Galn, 1-O-Hexadecyl-2-O-methyl-3-O-(2′-amino-2′-deoxy-D-galactopyranosyl)-sn-glycerol] the “Viability (% 0f control)” value ([1]; 10 μM) was “around 10 % 0f control”, the “Viability (% 0f control)” value ([1]; 10 μM, listed as α-Galn) was 9.64 % 0f control and the “Viability (% 0f control)” value ([1]; 20 μM, listed as α-Galn) was 0 % 0f control. For the same molecule, the “Viability (% 0f control)” value ([1]; 30 μM, listed as α-Galn) was 0 % 0f control, the loss of viability ([1]; 20 or 30 μM) was “Complete loss of viability” and the “toxicity against the cancer stem cells” value [1] was “quite toxic”. For the same molecule, the spheroid formation [7] was “unable to form spheroids” and the “generation of large acidic vacuoles” value [8] was “generation of these vacuoles”.
